# In paper PMC8147293, “Library of Selenocyanate and Diselenide Derivatives as In Vivo Antichagasic Compounds Targeting Trypanosoma cruzi Mitochondrion” (Pharmaceuticals, 2021):
# Where two headings read alike, the source gives them in different places.
# What was measured:
# [1] = test system: epimastigotes of Trypanosoma cruzi; assay: Flow cytometry of nucleic acid levels (acridine orange); format: cell-based; conditions: IC25 concentrations, 72 h
# Description: The untreated and treated epimastigotes of T. cruzi described in the NMR analysis were collected by centrifugation, washed three times in PBS and stained with […] rhodamine 123 (Rho) (Sigma-Aldrich) or acridine orange (AO) (Sigma-Aldrich) dyes in 0.5 mL PBS for 20 min at 28 °C [63]. Control epimastigotes with a fully depolarized mitochondrion were obtained by incubation for 40 min with 10 mM KCN prior to Rho loading. Non-stained parasites were also included. After elapsed time, epimastigotes were immediately processed and analyzed by flow cytometry as previously reported.
# Figure S2. Nucleic acids levels of Trypanosoma cruzi exposed to benznidazole (BZN) and compounds at […]
# Inhibition, in percentage, in the nucleic acids levels with respect to untntreated parasites. Values constitute means of three separate determinations ± standard deviation. Significant differences between untreated and treated parasites for α = 0.05.
# (§1) (1 picture or pasted object on this page, not shown here)
# [2] = test system: Mammalian Vero cells; assay: Cytotoxicity test on Vero cells (resazurin); format: cell-based; conditions: Chlorocebus sabaeus, Table 1, Vero cells, 48 h + 24 h resazurin, read-out: Toxicity IC50 Vero Cell; for CC50: 72 h
# Description: Mammalian Vero cells (EACC No. 84113001), cultured as previously reported, were used to determine the cytotoxicity of the tested compounds [56]. In short, 1.25 × 10^4 Vero cells·mL^−1 were treated by adding the compounds at a concentration range from 400 to 1 µM in 96-well microplates (200 µL·well^−1) at 37 °C for 48 h. Subsequently, resazurin sodium salt (Sigma-Aldrich) was added to be incubated for further 24 h. Finally, cell viability was determined following the same procedure as described to assess the trypanocidal activity in the epimastigotes. Each compound concentration was tested in triplicate in three independent experiments.
# [3] = test system: Trypanosoma cruzi; assay: Parasitemia reactivation after immunosuppression in BALB/c mice; format: in vivo; conditions: 20 mg/kg per day for 5 days; for reactivation of infection after immunosuppression: compared to untreated mice; for reactivation of infection after immunosuppression (in words): acute and chronic CD
# Description: Secondly, the experimental cure was determined using a double checking widely used in in vivo trypanocidal trials. This double checking—based on immunosuppression and PCR (Figure 2B,C, respectively)—was performed to evaluate the treatment effectiveness and the disease extent in both acute and chronic CD at the end of the in vivo timeline. The mice whose parasitemia and PCR remain negative after immunosuppression are considered cured.
# Immunosuppression enhances the reactivation of any residual infection, which is proportional to the parasite survival rate.
# (§2) Infection was carried out by intraperitoneal inoculation of 5 × 10^5 BTs of T. cruzi per mouse in 0.2 mL PBS [56]. The mice were treated by oral route (~200 µL) once daily for 5 consecutive days. The treatment for mice treated in the acute and chronic phases began when the infection was confirmed (9th day post-infection (dpi)) and was established that the animals had entered the chronic phase (100th dpi), respectively.
# (§3) The mice were divided into six groups (n = 3 per group): 0, negative control group (uninfected and untreated mice); I, positive control group (infected and untreated mice); II, BZN group (mice infected and treated with BZN); III, 8 group (mice infected and treated with 8); IV, 10 group (mice infected and treated with 10); V, 15 group (mice infected and treated with 15). The tested compounds and BZN were prepared at 2 mg·mL^−1 in an aqueous suspension vehicle containing 5% (v/v) DMSO and 0.5% (w/v) hydroxypropyl methylcellulose, as previously reported. Therefore, doses of 20 mg·kg^−1 per day were administered for 5 consecutive days, and vehicle only was administered in the negative and positive control groups.
# (§4) All in vivo assays for the evaluation of compounds in the acute and chronic CD (Scheme 1)—monitoring of parasitemia, immunosuppression, PCR [59, 60], ELISA [56], and clinical analysis [56]—were performed as previously described. PCR was based on the Spliced Leader (SL) intergenic region sequence of T. cruzi (for detailed description, see literature reported previously).
# [4] = test system: Trypanosoma cruzi; assay: Anti-T. cruzi IgG (ELISA) and splenomegaly in treated BALB/c mice; format: in vivo; conditions: treated BALB/c mice versus untreated; excluding IgG levels of chronic CD
# Description: Otherwise, the immune status of the mice was evaluated—through the titer of total anti-T. cruzi IgG and the splenomegaly (Figure S1)—since it is a characteristic linked to the parasite load and the effectiveness ascribed to the potential candidates. […].
# as §4
# Figure S1. A) Anti-Trypanosoma cruzi immunoglobulin G levels, expressed in absorbance at 492 nm, at different days post-infection (dpi) for each group of mice treated during the acute and chronic phases of Chagas disease: control (untreated), benznidazole (BZN), 8, 10 and 15. Blank and uninfected mice are also […]
# included. […] Values are the means of three mice ± standard deviation. (IS) immunosuppression. * Significant differences between untreated and treated mice for α =
# 0.05. B) Weight percentage of spleens in the chronic Chagas disease for each group of mice treated during the acute and chronic phases of the disease: control (untreated), benznidazole (BZN), 8, 10 and 15. Values are the means of three mice ± standard deviation. In brackets: reduction of splenomegaly in comparison to […]
# as §1
# [5] = test system: Trypanosoma cruzi; assay: PCR of seven organs/tissues of treated BALB/c mice (Spliced Leader sequence); format: in vivo
# Description: To assess the efficacy of potential candidates by confirming the absence of infection in the target locations, PCR was carried out at the end of the in vivo timeline (Figure 2C). PCR was positive in seven organs/tissues for the untreated (control) mice groups in both phases, showing the presence of the typical nested amastigotes of the chronic CD.
# as §2, §3, §4
# Figure 2 (A) Parasitemia profiles of each group of mice infected with Trypanosoma cruzi and treated during the acute Chagas disease over a period of 55 days: control (untreated), benznidazole (BZN), 8, 10 and 15. Treatment days are represented in grey. […]. (B) Parasitemia reactivation by fresh blood in the chronic Chagas disease after the immunosuppression cycles for each group of mice treated during the acute and chronic phases of the disease: control (untreated), benznidazole (BZN), 8, 10, and 15. […]. (C) PCR analysis of seven organs/tissues with the Trypanosoma cruzi Spliced Leader (SL) intergenic region sequence in the chronic Chagas disease for each group of mice treated during the acute and chronic phases of the disease: (a) control (untreated), (b) benznidazole, (c) 8, (d) 10, and (e) 15.
# [6] = test system: Trypanosoma cruzi bloodstream trypomastigotes (BTs); assay: Screening against bloodstream trypomastigotes (resazurin); format: cell-based; conditions: for IC50: Trypanosoma cruzi, Table 1, bloodstream trypomastigotes, 24 h treatment + 4 h resazurin, read-out: Activity IC50 Trypomast.; for Selectivity Index Trypomast.: IC50 Vero cells/IC50 trypomastigotes
# Description: 2 × 10^6 Bloodstream trypomastigotes (BTs), obtained by cardiac puncture from infected BALB/c mice as previously described, were treated by adding the tested compounds at a concentration range from 50 to 0.1 µM in 96-well microplates (200 µL·well^−1) at 37 °C. After 24 h of treatment, resazurin sodium salt (Sigma-Aldrich) was added to be incubated for further 4 h. Finally, trypanocidal activity was determined following the same procedure as described to assess the trypanocidal activity in the epimastigotes. Each compound concentration was tested in triplicate in three independent experiments.
# [7] = test system: Trypanosoma cruzi intracellular amastigotes; assay: Screening against intracellular amastigotes in Vero cells (Giemsa counting); format: cell-based; conditions: for IC50: Trypanosoma cruzi, Table 1, intracellular amastigotes in Vero cells, 72 h, read-out: Activity IC50 Amast.; for Selectivity Index Amast.: IC50 Vero cells/IC50 amastigotes
# Description: (§5) Trypanocidal activity against amastigotes was determined according to the literature reported previously. […]. […] Each compound concentration was tested in triplicate in four separate determinations.
# [8] = format: in vivo; conditions: BALB/c mice, 20 mg/kg per day for 5 days
# Description: Finally, biochemical analyses were performed to assess the toxicity associated to the treatment of compound 8. Kidney, heart and liver biochemical markers were measured, including values from uninfected and BZN-treated mice (Table S2). […] The low toxicity allows compound 8 to be tested at higher doses, establishing an improved treatment schedule based on pharmacokinetics in order to reach a total parasite clearance.
# as §4
# [9] = test system: Trypanosoma cruzi; assay: Parasitemia monitoring in infected BALB/c mice, acute Chagas disease; format: in vivo; conditions: oral 20 mg/kg per day for 5 days from 9th dpi, versus untreated
# Description: as §2, §3, §4
# [10] = test system: epimastigotes of T. cruzi Arequipa strain; assay: Screening against extracellular epimastigotes (resazurin); format: cell-based, Trypanosoma cruzi; conditions: for Selectivity Index Epimast.: IC50 Vero cells/IC50 epimastigotes; for IC50: Trypanosoma cruzi
# Description: Trypanocidal activity against epimastigotes of T. cruzi Arequipa strain (MHOM/Pe/2011/Arequipa, discrete typing unit V) was tested as previously described. In short, 5 × 10^5 epimastigotes·mL^−1 were treated by adding the tested compounds at a concentration range from 100 to 0.2 µM in 96-well microplates (200 µL·well^−1) for 48 h. Subsequently, resazurin sodium salt (Sigma-Aldrich) was added to be incubated for further 24 h. Finally, the absorbance was measured, and the trypanocidal activity was expressed as the IC50 (inhibitory concentration 50) using GraphPad Prism 6 software. Each compound concentration was tested in triplicate in three independent experiments.
# [11] = biological target: T1, human erythrocytes CuZn-SOD (Homo sapiens, UniProt P00441); assay: SOD enzymatic inhibition, CuZn-SOD; format: biochemical; conditions: 100 to 0.1 µM, read-out: CuZn-SOD IC50 (in brackets)
# T1 construct: commercial Cu/Zn-SOD from human erythrocytes (Sigma-Aldrich); purchased Sigma-Aldrich; host or cells: human erythrocytes
# T1 sequence (P00441 whole entry): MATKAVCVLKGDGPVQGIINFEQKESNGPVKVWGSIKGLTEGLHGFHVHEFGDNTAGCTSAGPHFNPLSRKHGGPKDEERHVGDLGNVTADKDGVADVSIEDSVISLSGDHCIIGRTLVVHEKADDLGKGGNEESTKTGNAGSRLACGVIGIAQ
# Description: (§6) Excreted Fe-SOD protein—obtained and quantified as previously described [64]—and commercial Cu/Zn-SOD from human erythrocytes (Sigma-Aldrich) were exposed to the tested compounds at a concentration range from 100 to 0.1 µM to determine in vitro activities using the method previously described.
# [12] = test system: Trypanosoma cruzi Fe-SOD; assay: SOD enzymatic inhibition, Fe-SOD; format: biochemical
# Description: as §6
# [13] = test system: epimastigotes of T. cruzi Arequipa; assay: 1H NMR analysis of excreted metabolites; format: cell-based, Trypanosoma cruzi; conditions: IC25 concentrations, 72 h
# Description: 5 × 10^5 epimastigotes·mL^−1 of T. cruzi Arequipa were treated by adding the tested compounds at IC25 concentrations in 25 cm^2 cell culture flasks at 28 °C for 72 h. Untreated controls were also included. Cultures were then centrifuged and filtered, and the metabolites of the supernatants were analyzed using a ^1H NMR spectrometer (VARIAN DIRECT DRIVE 500 MHz […]) with AutoX probe, D2O as solvent and 2,2-dimethyl-2-silapentane-5-sulphonate as the reference signal. Chemical shifts were expressed in parts per million (ppm), and analyses were conducted as previously reported.
# [14] = test system: Trypanosoma cruzi amastigotes in Vero cells; assay: Infection rate and amastigotes per Vero cell over 10 days; format: cell-based; conditions: IC25 concentrations, measured at 2 days intervals for 10 days
# Description: Before going ahead on in vivo trials, the in vitro infection rate and the average number of amastigotes per Vero cell were also measured at 2 days intervals for 10 days after treating the infected cultures with BZN and potential candidates (8, 10, and 15) (Figure 1) at ICH25 concentrations resulting from amastigotes screening. […]. Fast-acting drugs are urgently needed, and this feature is an additional advantage since they can eliminate the parasite in a few doses.
# as §5
# Figure 1 (A) Percentage of infected Vero cells and (B) number of amastigotes of Trypanosoma cruzi per Vero cell exposed to benznidazole (BZN), 8, 10 and 15. Values constitute means of three separate determinations ± standard deviation. * Significant differences between untreated and treated parasites for α = 0.05. dpi, days post-infection.
# [15] = Table 1, T. cruzi epimastigotes, 48 h treatment + 24 h resazurin, read-out: Activity IC50 Epimast.
# [16] = Table S1, cultured epimastigote form of T. cruzi, read-out: Activity IC50
compound,measurement,setting,value
"O=C(Cn1ccnc1[N+](=O)[O-])NCc1ccccc1 [BZN, benznidazole, reference compound]",reduction in nucleic acid levels with respect to untreated parasites,[1],22.4%
same,IC50,[2],80.4 ± 7.1 µM
same,reactivation of infection after immunosuppression,[3]; mice treated in acute CD,81%
same,reactivation of infection after immunosuppression,[3]; mice treated in chronic CD,68%
same,total anti-T. cruzi IgG levels and splenomegaly,[4],significant reduction
same,negative PCR (parasite-free locations),[5]; mice treated in acute CD,2/7
same,negative PCR (parasite-free locations),[5]; mice treated in chronic CD,3/7
same,IC50,[6],12.4 ± 1.1 µM
same,IC50,[7],8.3 ± 0.7 µM
same,"kidney, heart and liver biochemical markers",[8],disturbed 2 days after treatment
same,parasitemia levels (counting BTs) during the acute CD,[9],remarkable parasitemia reduction
CSc1ccc(C[Se][Se]Cc2ccc(SC)cc2)cc1 [compound 10],CC50,[2],135 ± 6.3 µM
same,Selectivity Index Epimast.,[10],75
same,IC50,[10]; [15],1.8 ± 0.2 µM
same,IC50,[10]; [16],≤ 10 µM
same,reactivation of infection after immunosuppression (in words),[3],light activity
same,total anti-T. cruzi IgG levels and splenomegaly,[4],Slight or non-significant reductions
same,IC50,[11],> 100 µM
same,Selectivity Index Trypomast.,[6],79
same,IC50,[6],1.7 ± 0.3 µM
same,Fe-SOD inhibition,[12]; at 100 µM,100%
same,variation of excreted metabolites versus untreated parasites,[13],< 10%
same,Selectivity Index Amast.,[7],112
same,IC50,[7],1.2 ± 0.2 µM
same,infection rate and average number of amastigotes per Vero cell,[14],decrease in both infection rate and number of amastigotes per cell in a time-dependent manner
same,parasitemia levels (counting BTs) during the acute CD,[9],slight activity
N#C[Se]Cc1ccccc1[N+](=O)[O-] [compound 15],CC50,[2],17.9 ± 1 µM
same,Selectivity Index Epimast.,[10],20
same,IC50,[10]; [15],0.9 ± 0.1 µM
same,IC50,[10]; [16],≤ 10 µM
same,reactivation of infection after immunosuppression (in words),[3],non-significant differences
same,total anti-T. cruzi IgG levels and splenomegaly,[4],Slight or non-significant reductions
same,IC50,[11],> 100 µM
same,Selectivity Index Trypomast.,[6],14
same,IC50,[6],1.3 ± 0.3 µM
same,SOD inhibitory activity (in words),[12]; 100 to 0.1 µM,no inhibitory activity
same,excretion of metabolites versus untreated parasites (in words),[13],strikingly increased
same,Selectivity Index Amast.,[7],36
same,IC50,[7],0.5 µM
same,infection rate and average number of amastigotes per Vero cell,[14],decrease in both infection rate and number of amastigotes per cell in a time-dependent manner
same,parasitemia levels (counting BTs) during the acute CD,[9],non-significant differences
